Assay results taken from patent US20240279711A1, “MARKER FOR DNA DAMAGE IN PROXIMITY OF TRANSCRIBED GENOMIC LOCI AND METHODS FOR IDENTIFYING AND/OR QUANTIFYING THESE DNA DAMAGES” (FONDAZIONE ISTITUTO ITALIANO DI TECNOLOGIA, priority 2021, published 2024).

How the values were obtained:
Assay type in all cases: cell-based
[1] = test system: mCherry-CDK12 recruitment at endogenous DDR sites in RPE-iCUT cells; test: CDK12 recruitment to CRISPR-Cas9 induced DSBs at endogenous loci; conditions: DSBs 1 kb and 2 kb upstream of TSS of POLRIB, IFRD2, MCM2, DRB 100 uM, 3 hours before harvesting
Method: RPE iCUT cells, stably expressing inducible CRISPER-Cas9, were transfected with mCherry-CDK12. Cas9 was activated by doxycycline and SHIELD-1 for 16 hours. […] 3 hours before harvesting, the cells were treated with DRB (100 uM). The bar graph reports the percentage of cells showing co-localisation of CDK12 and γH2A. X in the indicated genomic regions (mean of two independent experiments, 40 cells were considered for each region).
For the site-specific induction of a DSB at selected endogenous genomic loci, we used RPE-iCUT cells: immortalised retinal epithelial cells engineered for CRISPR-CAS9 expression and conditional activation. These cells were transfected with mCherry-CDK12 and a set of sgRNAs (Alt-R-gRNA) designed to induce DBS in three expressed genes (MCM2, IFRD2 and POLRIB), in two regions upstream of their site of transcriptional onset (TSS), or designed to induce DSB in two genomic regions distal to transcribed loci. The induction of DSBs by CRISPR-Cas9 was assessed by immunofluorescence of γH2A. X, while the recruitment of CDK12 to DNA-damaged sites was assessed by microscopy analysis of mCherry signals. […] As a control, DSBs induced in regions distal to transcribed loci show low levels of CDK12 recruitment (close to the background signal), which are not altered by RNA-pol2 inhibitors (FIG. 8).

[2] = test system: mCherry-CDK12 recruitment at damaged DNA sites in U2OS cells; test: Laser micro-irradiation, time-lapse microscopy of mCherry-CDK12 recruitment to damaged DNA sites; conditions: for recruitment of mCherry-CDK12 at laser-damaged areas: 3 hours before laser micro-irradiation; for localisation of CDK12 at laser-damaged sites: 2 hours before laser microirradiation; for localisation of CDK12 at laser-damaged DNA sites: 1 hour before laser microirradiation
Method: FIGS. 6A and 6B show how the recruitment of CDK12 to DDR sites is transcription-dependent. U2OS cells, transfected with mCherry-CDK12 plasmid, were first treated with DRB (100 uM), Triptolide (1 uM) or DMSO (mock) for 3 hours and then micro-irradiated by laser. Selected regions within the nucleus were micro-irradiated with 10 iterations of a laser at 405 nm with 100% power. The cells were subjected to quantitative analysis using time-lapse microscopy.
U2OS cells were transfected with the mCherry-CDK12 encoding plasmid and treated with THZ531 (100 nM) or DMSO for 24 hours. The cells were previously treated with BrdU for 24 hours to sensitise the DNA to breaks by laser. To generate localised DNA damage, selected regions within the nucleus were micro-irradiated with 10 iterations of a laser at 405 nm with 100% power. The cells were then subjected to time-lapse microscopic analysis. For each condition, at least 30 cells were considered. FIG. 9A reports representative images used for the analysis shown in the graph of FIG. 9B.
U2OS cells were transfected with mCherry-CDK12 plasmid and pre-treated with KU-55933 (ATMi; 10 μM), VE-821 (ATRi; 10 µM) or DMSO (mock) for 2 hours prior to laser microirradiation. To generate localised DNA damage, selected regions within the nucleus were micro-irradiated with 10 iterations of a laser at 405 nm with 100% power. The cells were subjected to quantitative analysis by time-lapse microscopy. FIG. 10A: representative images used for the analysis shown in the graph in FIG. 10B.
FIGS. 11A and 11B show how CDK12 recruitment to DDR sites depends on PARP1 activity. U2OS cells were transfected with mCherry-CDK12 plasmid and pre-treated with Olaparib (1 µM), Veliparib (10 μM) or DMSO (mock) for 1 hour before laser microirradiation. To generate localised DNA damage, selected regions within the nucleus were micro-irradiated with 10 iterations of a laser at 405 nm with 100% power. The cells were then subjected to quantitative analysis by time-lapse microscopy.
U2OS cells were transfected with a vector encoding mCherry-CDK12. Cells were micro-irradiated with a laser beam to induce DNA breaks confined to appropriately selected nuclear areas.
In order to inhibit RNA-pol2, the cells were pre-treated with either (i) triptolide (a TFIIH inhibitor that blocks the start of transcriptional) or (ii) DRB (5,6-dichlorobenzimidazole riboside, a DSIF inhibitor that prevents transcriptional elongation).
U2OS cells were transfected with a vector encoding for mCherry-CDK12. Cells were micro-irradiated with a laser beam to induce DNA breaks confined to selected nuclear areas. In order to inhibit CDK12, the cells were pre-treated with THZ531, a covalent inhibitor of CDK12.
U2OS cells were transfected with a vector encoding for mCherry-CDK12. The cells were micro-irradiated with a laser beam to induce DNA breaks in selected nuclear areas. To inhibit the DDR response, the cells were pre-treated with an ATM inhibitor (KU-55933) or an ATR inhibitor (VE-821).
U2OS cells, transfected with a vector encoding for mCherry-CDK12, were micro-irradiated with a laser beam to induce DNA breaks confined to selected nuclear areas. To inhibit PARP1, the cells were pre-treated with Olaparib and Veliparib.

[3] = test system: mCherry-CDK12 recruitment to programmed DSBs in U2OS-TRE-I-Sce1 cells; test: CDK12 recruitment to programmed Sce-1 DSB, co-localisation with γH2A.X; conditions: U2OS-TRE-I-SceI cells, doxycycline, 3 hours
Method: FIGS. 7A and 7B show how CDK12 recruitment at a DNA-damaged locus is transcriptionally dependent. U2OS-TRE-I-SceI cells were transfected with plasmid vectors encoding mCherry-CDK12, p-rtTA, YFP-MS2 or I-Sce1. The cells were treated with doxycycline, which is required for the induction of the rtTA transcription factor that activates the transcription of the MS2 reporter gene. RNA-pol2 activity was inhibited by DRB (100 uM) or TRIPTOLIDE (TPL, 1 uM) for 3 hours. The cells were fixed with 4% PFA for 15 minutes and immunostained for γH2A. X. The table in FIG. 7B reports the percentage of cells showing co-localisation between CDK12 and γH2A. X (mean of two experiments).
U2OS-TRE-I-Sce-1 cells were transfected with plasmids encoding (i) YFP-MS2 (a chimeric gene produced by the MS2 CDNA fused with the YFP cDNA), (ii) mCherry-CDK12 (a chimeric fusion of mCherry and CDK12), (iii) rtTA (a doxycycline-activated transcription factor) and (iv) the restriction enzyme Sce-1. Transcription was activated by the addition of doxycycline and monitored by detecting subcellular positive nuclear foci for YFP signal. Sce-1-induced DSBs were visualised by immunofluorescence staining specific for the phosphorylated form of histone H2Ax (γH2A. X), a marker for DNA break detection and DNA damage response (DDR) signalling pathway activation. […]

[4] = test system: MS2 reporter transcription in U2OS-TRE-I-Sce1 cells; test: MS2 reporter gene transcription at damaged locus (YFP-MS2 / pCherry-tTA-ER co-localisation); conditions: +SceI, OHT, THZ531 for 24 h
Description: The fixed cells were processed to detect the γH2A. X signal by immunofluorescence. […] U2OS-TRE-I-Sce1 cells were transfected with plasmids encoding (i) YFP-MS2 (a chimeric gene produced from MS2 cDNA fused with YFP cDNA), (ii) mCherry-tTA-ER and (iii) the restriction enzyme Sce-1. Transcription was activated by addition of OHT and monitored by detecting positive nuclear foci for YFP signal. Sce1-induced DSBs were visualised by immunofluorescence staining of the phosphorylated form of the histone H2Ax (γH2A. X), a marker for DNA break detection and DNA damage response (DDR) signalling pathway activation.

OC[C@H]1O[C@@H](n2cnc3cc(Cl)c(Cl)cc32)[C@H](O)[C@@H]1O [DRB, 5,6-dichlorobenzimidazole riboside]
CDK12 recruitment to DDR foci proximal to promoters [1]: reduced its recruitment to damaged foci
recruitment of mCherry-CDK12 at laser-damaged areas ([2]; DRB 100 uM): prevents the recruitment of mCherry-CDK12 at damaged areas
recruitment of mCherry-CDK12 at Sce-1 damaged locus ([3]; DRB 100 uM): prevents the recruitment of mCherry-CDK12 at damaged areas

O=c1cc(-c2cccc3c2Sc2ccccc2S3)oc(N2CCOCC2)c1 [KU-55933]
localisation of CDK12 at laser-damaged sites ([2]; KU-55933 (ATMi) 10 μM): Neither of the two inhibitor affected the localisation of CDK12 at the damaged sites

O=C(c1cc(Cc2n[nH]c(=O)c3ccccc23)ccc1F)N1CCN(C(=O)C2CC2)CC1 [Olaparib]
localisation of CDK12 at laser-damaged DNA sites ([2]; Olaparib 1 µM): inhibited the localisation of CDK12 at damaged DNA sites

CN(C)C/C=C/C(=O)Nc1ccc(C(=O)N2CCC[C@@H](Nc3ncc(Cl)c(-c4c[nH]c5ccccc45)n3)C2)cc1 [THZ531]
recruitment of CDK12 at DDR foci (laser) ([2]; THZ531 100 nM, 24 hours, BrdU pre-sensitised): did not affect the recruitment of CDK12 at DDR foci
MS2 reporter expression at damaged locus [4]: reactivated MS2 reporter expression

CS(=O)(=O)c1ccc(-c2cnc(N)c(C(=O)Nc3ccccc3)n2)cc1 [VE-821]
localisation of CDK12 at laser-damaged sites ([2]; VE-821 (ATRi) 10 µM): Neither of the two inhibitor affected the localisation of CDK12 at the damaged sites

C[C@]1(c2nc3c(C(N)=O)cccc3[nH]2)CCCN1 [Veliparib]
localisation of CDK12 at laser-damaged DNA sites ([2]; Veliparib 10 μM): inhibited the localisation of CDK12 at damaged DNA sites

CC(C)[C@]12O[C@H]1[C@@H]1O[C@]13[C@]1(O[C@H]1C[C@H]1C4=C(CC[C@@]13C)C(=O)OC4)[C@@H]2O [triptolide]
recruitment of mCherry-CDK12 at laser-damaged areas ([2]; Triptolide 1 uM): prevents the recruitment of mCherry-CDK12 at damaged areas
recruitment of mCherry-CDK12 at Sce-1 damaged locus ([3]; TRIPTOLIDE 1 uM): prevents the recruitment of mCherry-CDK12 at damaged areas
